# US20230190924A1, “ANTIGEN OF ALLERGY AND EPITOPE THEREOF” (HOYU CO., LTD., priority 2017, published 2023)
# System: IgE antibodies from patients
# Assay: Epitope mapping (2) overlapping (10-amino-acid peptides) and (3) alanine scanning on peptide arrays
# Type: binding, human
# Conditions: overlapping peptides with flanking sequence
# Method: On the basis of the sequences (SEQ ID NOs: 272-295 for vitellogenin-2 precursor, SEQ ID NOs: 296-303 for vitellogenin-3, SEQ ID NOs: 304-311 for apolipoprotein B precursor, and SEQ ID NOs: 312-318 for vitellogenin-1 or lipovitellin-1) of the peptides bound to an IgE antibody in serum in a patient-specific manner as described above in (A), a library of overlapping peptide fragments (length: 10 amino acids) was prepared using the sequences of the peptides and sequences in which sequences were added so as to flank each peptide in the amino acid sequences of allergen components (amino acid sequences of SEQ ID NO: 59, 106 or 262 for vitellogenin-2 precursor, SEQ ID NO: 2, 13 or 47 for vitellogenin-3, SEQ ID NO: 152, 237 or 251 for apolipoprotein B, and SEQ ID NO: 18 for vitellogenin-1 or lipovitellin-1) comprising the sequences of the peptide to carry out epitope mapping.
# The peptides to be synthesized were shifted by one amino acid.
# The library was prepared by the same procedure as described above in (A), and the presence or absence of binding of an IgE antibody present in the serum of a patient and a non-egg-allergic subject to each peptide fragment was measured by the same technique as described above. Amino acids at positions where the binding activity against IgE antibodies from patients were lost or decreased in the peptides shifted by one amino acid while binding activity against IgE antibodies from non-egg-allergic subjects arose were confirmed as amino acids adversely affecting the specificity of binding to IgE antibodies.
# Chemiluminescence intensity in images obtained by measurement was converted into a numeric value in the same manner as in (A) using ImageQuant TL (GE Healthcare). Numeric values determined from images obtained as a result of using only anti-human IgE antibody-HRP antibody without carrying out the procedures (2) and (3) described above in the subsection titled (3) Spotting of cellulose-bound peptide solution were […] numeric values determined from images obtained from results about the serum of 6 patients. It was determined that a peptide having the resulting value larger than 0 had no binding activity against IgE antibodies when having less than 20% of values obtained using the sequences (amino acid sequences of SEQ ID NO: 59, 106 or 262 for vitellogenin-2, SEQ ID NO: 2, 13 or 47 for vitellogenin-3, SEQ ID NO: 152, 237 or 251 for apolipoprotein B, and SEQ ID NO: 18 for vitellogenin-1 or lipovitellin-1) serving as the basis of overlapping, had binding activity, albeit poor, against IgE antibodies when having 20% or more and less than 50% thereof, had binding activity, albeit somewhat poor, against IgE antibodies when having 50% or more and less than 70% thereof, had almost equivalent binding activity against IgE antibodies when having 70% or more and less than 90% thereof, and had equivalent or good binding activity against IgE antibodies and thus had remaining binding activity against IgE antibodies when having 90% or more thereof.
# From the amino acid sequences identified above in (A), a library of peptide fragments in which N-terminal amino acids were substituted one by one by alanine according to a technique called alanine scanning (Non Patent Literature 1) was prepared by the same technique as described above. The presence or absence of binding of an IgE antibody present in the serum of a patient and a non-egg-allergic subject to each peptide fragment was measured by the same technique as described above. Amino acids at positions where the binding activity against IgE antibodies from patients were lost or decreased by the substitution by alanine while binding activity against IgE antibodies from non-egg-allergic subjects arose were confirmed as amino acids important for exertion of original antigenicity, or amino acids influencing exertion of original antigenicity.
Substance,"binding to IgE antibodies from patients, sequence comprising a region carboxy-terminally adjacent to the epitope","binding to IgE antibodies from patients, sequence comprising a region amino-terminally adjacent to the epitope"
SEQ ID NO: 402: sequence comprising a region carboxy-terminally adjacent to epitope 8 (LPTETPLVSA; epitope),binding to IgE antibodies from patients,
SEQ ID NO: 404: sequence comprising a region amino-terminally adjacent to epitope 9 (EVAFININKE; epitope),,binding to IgE antibodies from patients
SEQ ID NO: 409: sequence comprising a region amino-terminally adjacent to epitope 10 (LQQVMKTVVE; epitope),,binding to IgE antibodies from patients
SEQ ID NO: 426: sequence comprising a region carboxy-terminally adjacent to epitope 11 (LKNLKIETNP; epitope),binding to IgE antibodies from patients,
SEQ ID NO: 452: sequence comprising a region amino-terminally adjacent to epitope 17 (TNLTDSSKWK; epitope),,binding to IgE antibodies from patients
SEQ ID NO: 462: sequence comprising a region amino-terminally adjacent to epitope 19 (NKIKTFNE; epitope),,binding to IgE antibodies from patients
SEQ ID NO: 465: sequence comprising a region carboxy-terminally adjacent to epitope 19 (VKFNYSMPAN; epitope),binding to IgE antibodies from patients,
SEQ ID NO: 466: sequence comprising a region carboxy-terminally adjacent to epitope 19 (FNYSMPANCY; epitope),binding to IgE antibodies from patients,
SEQ ID NO: 479: sequence comprising a region amino-terminally adjacent to epitope 20 (KSAGEATNLK; epitope),,binding to IgE antibodies from patients

# Results, then the substance that gave them:
"binding to IgE antibodies from patients, sequence comprising a region carboxy-terminally adjacent to the epitope","binding to IgE antibodies from patients, sequence comprising a region amino-terminally adjacent to the epitope",Substance
binding to IgE antibodies from patients,,SEQ ID NO: 401: sequence comprising a region carboxy-terminally adjacent to epitope 8 (LPTETPLVS; epitope)
,binding to IgE antibodies from patients,SEQ ID NO: 422: sequence comprising a region amino-terminally adjacent to epitope 11 (PMKFDAKIDV; epitope)
,binding to IgE antibodies from patients,SEQ ID NO: 451: sequence comprising a region amino-terminally adjacent to epitope 17 (FVTNLTDSSK; epitope)
,binding to IgE antibodies from patients,SEQ ID NO: 471: sequence comprising a region amino-terminally adjacent to epitope 20 (GEATNLKAIN; epitope)
binding to IgE antibodies from patients,,SEQ ID NO: 476: sequence comprising a region carboxy-terminally adjacent to epitope 20 (AINIKIGSHE; epitope)
,binding to IgE antibodies from patients,SEQ ID NO: 480: sequence comprising a region amino-terminally adjacent to epitope 20 (AGEATNLKAI; epitope)

# Same assay, conditions: procedures (B) overlapping and (C) alanine scanning
row,Substance,region within the epitope important for binding to IgE antibodies from patients
1,SEQ ID NO: 397: region in epitope 8 (KALQGWKELP; epitope),important for binding
2,SEQ ID NO: 400: region in epitope 8 (GWKELPTETP; epitope),important for binding
3,SEQ ID NO: 412: region in epitope 10 (MKTVVEPA; epitope),important for binding
4,SEQ ID NO: 414: region in epitope 10 (ADRNA; epitope),important for binding
5,SEQ ID NO: 419: region in epitope 11 (DVKLKNLK; epitope),important for binding
6,SEQ ID NO: 425: region in epitope 11 (DVKLKNLKI; epitope),important for binding
7,SEQ ID NO: 436: region in epitope 15 (SSSNSKSSSS; epitope),important for binding
8,SEQ ID NO: 440: region in epitope 15 (SSNSKSS; epitope),important for binding
9,SEQ ID NO: 444: region in epitope 16 (QEFPKRKLPG; epitope),important for binding
10,SEQ ID NO: 458: region in epitope 17 (KWKLCADAS; epitope),important for binding
11,SEQ ID NO: 461: region in epitope 19 (KIKTF; epitope),important for binding
12,SEQ ID NO: 464: region in epitope 19 (FNEVKFNYSM; epitope),important for binding
13,SEQ ID NO: 470: region in epitope 20 (EATNLKAIN; epitope),important for binding
14,SEQ ID NO: 482: region in epitope 20 (ATNLKAINI; epitope),important for binding
15,SEQ ID NO: 483: region in epitope 20 (ATNLKAINIK; epitope),important for binding

# Continued, values first:
row,region within the epitope important for binding to IgE antibodies from patients,Substance
1,important for binding,SEQ ID NO: 407: region in epitope 9 (ELLQQ; epitope)
2,important for binding,SEQ ID NO: 430: region in epitope 14 (PSKKGNTVLA; epitope)
3,important for binding,SEQ ID NO: 434: region in epitope 15 (SSSSSNSKS; epitope)
4,important for binding,SEQ ID NO: 446: region in epitope 16 (PKRKLPGDRA; epitope)
5,important for binding,SEQ ID NO: 449: region in epitope 16 (RKLPGDRATS; epitope)
6,important for binding,SEQ ID NO: 455: region in epitope 17 (TDSSKWKLCA; epitope)
7,important for binding,SEQ ID NO: 473: region in epitope 20 (INIKIGSH; epitope)
